In paper PMC3184957, “Improving a Natural CaMKII Inhibitor by Random and Rational Design” (PLoS ONE, 2011):
Entries after “also recorded” stand apart in the source; their conditions may differ. Where two headings read alike, the source gives them in different places. Ends that are not written are not given here.

Key:
CaMKIIα = target: T1, CaMKIIα (Rattus norvegicus, UniProt P11275); assay: CaMKII activity assay, phosphorylation of syntide 2; type: biochemical; settings: for effect of rational mutation in CN19a2v / CN19o on CaMKII inhibition (Fig. 6): compared with CN19a2v or CN19o, Fig. 6C CaMKII 0.5 nM; for effect of individual mutation of CN19 on potency of CaMKII inhibition: compared with CN19, some substitutions tested in CN19a2 or a3; for CaMKII activity remaining at 5 nM peptide: 5 nM peptide (Figs. S6, 7B); for fold greater potency of CaMKII inhibition compared to CN19: ratio of IC50 values; for fold reduction of potency of CaMKII inhibition compared to CN19 (Ala scan): Ala substitution in CN19, Fig. 2
T1 construct: made in house; host or cells: baculovirus/Sf9 (CaMKII); bacteria (CaM)
From the text: CaM and CaMKII was purified after bacterial or baculovirus/Sf9 cell expression as described, [47]. Other kinases were purchased (PKA and PKC from PhosphoSolutions; others from SignalChem). […] All CN peptides were N-terminally acetylated and C-terminally amidated, except for the peptides used for the initial Ala scan. Substrate peptides were purchase from Genescript or as indicated. Chemicals were obtained from Sigma and Perkin Elmer. […] For all kinase activity assays, reactions were stopped by spotting onto P81 cation exchange chromatography paper (Whatman) squares. After extensive washes in water, phosphorylation of the substrate peptide bound to the P81 paper was measured by the Cherenkov method.

CaMKII = target: T2, CaMKII (Rattus norvegicus, UniProt P11275); assay: CaMKII activity assay, T-site binding substrate AC3; type: biochemical; settings: S- and T-site binding substrate AC3, competitive inhibition (Fig. S1); read-out: IC50 for inhibition of CaMKII activity towards AC3
T2 construct: made in house; host or cells: baculovirus/Sf9 (CaMKII); bacteria (CaM)
Description: Standard reactions (1 min at 30°C) were started by adding CaMKIIα (2.5 nM subunits, unless stated otherwise) to a mix of 50 mM PIPES pH 7.2, 0.1% BSA, 1 µM CaM, 1 mM CaCl2, 10 mM MgCl2, 100 µM [γ-^32P]ATP (∼1 Ci/mmole), 75 µM substrate peptide (syntide 2, or as indicated), and inhibitor peptide as indicated. Reactions with 0.1 nM CaMKII were done for 10 min.
(§1) For all kinase activity assays, reactions were stopped by spotting onto P81 cation exchange chromatography paper (Whatman) squares. After extensive washes in water, phosphorylation of the substrate peptide bound to the P81 paper was measured by the Cherenkov method.
Systematic further truncation of CN21 defined the minimal inhibitory region, CN19 (Fig. 1B). […] Thus, the peptide C-terminally truncated by 2 amino acids (now termed CN19) contains the minimal inhibitory region with full inhibitory potency. Phosphorylation of syntide 2 by CaMKII was inhibited by CN21, CN20 and CN19 with an IC50 of ∼100 nM (Fig. 1C). Syntide 2 is a “regular” S-site binding CaMKII substrate, and CN peptides inhibit its phosphorylation in a non-competitive manner. We additionally tested AC3, an S- and T-site binding substrate, as this T-site binding results in competitive inhibition by CN peptides, which also bind to the T-site. […]

CaMKIα = target: T3, CaMKIα (Mus musculus, UniProt Q91YS8); assay: CaMKI activity assay; type: biochemical; settings: for IC50: 2.5 nM CaMKIα, 3 min, syntide 2, curve fit with Hill coefficient set as 1 (Fig. S5), read-out: IC50 of CaMKI inhibition; for effect on CaMKI activity at 5 µM peptide: 5 µM peptide (Figs. 5, 7B)
T3 construct: purchased SignalChem
Description: as §1
(§2) Reactions were performed essentially as described for CaMKII. However, for AMPK, 100 µM AMP was added to the reaction. For AMPK, PKC, and PKA, the reaction mix contained 1 mM EGTA instead of CaCl2 and CaM. Prior to activity assays, CaMKI (12.5 nM) and CaMKIV (80 nM) were phosphorylated by CaMKKα (1.25–4 nM) for 5 min at 30°C in Ca^2+/CaM containing buffer. Additionally, kinase amount, reaction time, and the substrate (obtained from different companies as indicated) was varied as follows: 2.5 nM CaMKIα, 3 min, syntide 2 (Genescript); 5 nM CaMKIV, 10 min, CaMK2g 345–358 peptide (Anaspec); 2.5 nM DAPK1 1–363, 3 min, MLC-derived peptide (Anaspec); 5 nM AMPK-α2β1γ1, 10 min, SAMStide (SignalChem); 5 nM PKA, 10 min, Kemptide (Genescript); 2 nM PKC, 10 min, MARCKS peptide (Anaspec). PKA and PKC were purified from bovine heart or rat brain, respectively. […] Other kinases were recombinant protein from mouse (CaMKI) or human (CaMKK, CaMKIV, DAPK1, AMPK), of the isoform and/or subunit composition indicated above.

PKC = PKC activity assay; type: biochemical, rat; settings: 5 µM peptide; 2 nM PKC (PKM fragment), 10 min, MARCKS peptide
Description: as §1, §2

AMPK-α2β1γ1 = target: T4, AMPK-α2β1γ1 (Homo sapiens, UniProt P54619+P54646+Q9Y478); assay: AMPK activity assay; type: biochemical; settings: 5 µM peptide; 5 nM AMPK, 10 min, SAMStide, 100 µM AMP
T4 construct: purchased SignalChem
Description: as §1, §2

CaMKIV = target: T5, CaMKIV (Homo sapiens, UniProt Q16566); assay: CaMKIV activity assay; type: biochemical; settings: 5 µM peptide; 5 nM CaMKIV, 10 min, CaMK2g 345–358 peptide
T5 construct: purchased SignalChem
Description: as §1, §2

PKA = target: T6, PKA (Bos taurus, UniProt P00517); assay: PKA activity assay; type: biochemical, bovine; settings: 5 µM peptide; 5 nM PKA catalytic subunits, 10 min, Kemptide
T6 construct: PKA and PKC were purified from bovine heart or rat brain, respectively; purchased PhosphoSolutions; host or cells: bovine heart
Description: as §1, §2

DAPK1 1–363 = target: T7, DAPK1 1–363 (Homo sapiens, UniProt P53355); assay: DAPK1 activity assay; type: biochemical; settings: 5 µM peptide; 2.5 nM DAPK1 1–363, 3 min, MLC-derived peptide
T7 construct: 2.5 nM DAPK1 1–363, 3 min, MLC-derived peptide (Anaspec); purchased SignalChem
Description: as §1, §2

[1] = class estimated from syntide 2 phosphorylation at 0.3 and 0.1 µM peptide, Ala scan peptides not N-acetylated / C-amidated, read-out: IC50 [μM] (Ala scan of CN19, Fig. 2)
[2] = in vitro [γ-32P]ATP assay, substrate syntide 2, 30°C, approximate values (Figs. 1C, 4B, 6), read-out: IC50 of inhibition of CaMKII phosphorylation of syntide 2
[3] = values compared from Figs. 1, 4 and 7, read-out: CaMKII IC50 (Fig. S5 table and legend)

T4 sequence (P54646 whole entry): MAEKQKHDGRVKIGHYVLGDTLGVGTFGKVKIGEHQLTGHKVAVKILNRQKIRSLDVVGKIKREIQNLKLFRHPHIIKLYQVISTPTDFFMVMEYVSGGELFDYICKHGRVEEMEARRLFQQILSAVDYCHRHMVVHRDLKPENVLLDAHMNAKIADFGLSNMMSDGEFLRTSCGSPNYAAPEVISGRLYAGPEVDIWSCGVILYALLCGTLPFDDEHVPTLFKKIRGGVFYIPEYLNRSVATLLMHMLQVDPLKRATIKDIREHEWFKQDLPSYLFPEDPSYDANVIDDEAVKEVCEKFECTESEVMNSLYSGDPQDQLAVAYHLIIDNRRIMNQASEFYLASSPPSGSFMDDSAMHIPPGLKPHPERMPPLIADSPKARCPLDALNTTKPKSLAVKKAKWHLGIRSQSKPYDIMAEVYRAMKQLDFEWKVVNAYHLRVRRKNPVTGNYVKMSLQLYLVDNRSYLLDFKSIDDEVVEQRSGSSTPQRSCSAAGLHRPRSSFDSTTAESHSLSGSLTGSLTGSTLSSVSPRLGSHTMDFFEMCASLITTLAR
T4 sequence (Q9Y478 whole entry partner): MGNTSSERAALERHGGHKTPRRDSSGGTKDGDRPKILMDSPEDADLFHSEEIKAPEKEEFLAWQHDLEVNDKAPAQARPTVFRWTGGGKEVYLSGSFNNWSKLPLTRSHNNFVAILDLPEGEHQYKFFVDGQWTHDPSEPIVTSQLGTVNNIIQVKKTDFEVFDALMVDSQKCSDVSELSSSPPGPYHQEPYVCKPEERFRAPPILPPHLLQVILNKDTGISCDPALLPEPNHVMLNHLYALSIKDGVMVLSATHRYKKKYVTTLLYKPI
T4 sequence (P54619 whole entry partner): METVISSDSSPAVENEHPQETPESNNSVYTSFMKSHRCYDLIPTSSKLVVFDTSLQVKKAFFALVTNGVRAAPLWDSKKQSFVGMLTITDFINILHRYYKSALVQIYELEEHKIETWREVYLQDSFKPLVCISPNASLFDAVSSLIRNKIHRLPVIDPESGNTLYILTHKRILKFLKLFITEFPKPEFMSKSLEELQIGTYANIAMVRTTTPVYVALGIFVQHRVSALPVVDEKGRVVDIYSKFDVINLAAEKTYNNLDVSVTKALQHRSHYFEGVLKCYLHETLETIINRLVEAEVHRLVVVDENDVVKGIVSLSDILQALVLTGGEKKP

## KRPPKLGQIGRSKRVVAED [I17A]
CaMKIIα; [1]
  IC50: < 0.3 µM

## Ac-KRAPKLGQIGRVKAVDIED-NH2 [CN19a2v V16D]
CaMKIIα
  effect of rational mutation in CN19a2v / CN19o on CaMKII inhibition (Fig. 6): significantly increased potency
CaMKIIα; [2]
  IC50: ~0.001 µM

## KRAPKLGQIGRSKRVVIED [P3A]
CaMKIIα; [1]
  IC50: < 0.1 µM
CaMKIIα; syntide 2
  effect of individual mutation of CN19 on potency of CaMKII inhibition: significantly increased potency

## KRPPKLGQAGRSKRVVIED [I9A]
CaMKIIα; [1]
  IC50: > 0.3 µM

## KRPPKLGQIGRSKAVVIED [R14A]
CaMKIIα; [1]
  IC50: < 0.1 µM
CaMKIIα; syntide 2
  effect of individual mutation of CN19 on potency of CaMKII inhibition: significantly increased potency

## Ac-KRPPKLGQIGRSKRVVIED-NH2 [CN19]
CaMKIIα; [3]
  IC50: 0.1 µM
CaMKII
  IC50: ~1 µM
CaMKIα
  IC50: 36 µM
  effect on CaMKI activity at 5 µM peptide: did not significantly inhibit
CaMKIα; ratio CaMKI IC50 / CaMKII IC50
  selectivity for CaMKII vs CaMKI: ~360 fold

## ARPPKLGQIGRSKRVVIED [K1A]
CaMKIIα; [1]
  IC50: < 0.3 µM

## KRPPALGQIGRSKRVVIED [K5A]
CaMKIIα; [1]
  IC50: < 0.3 µM

## KAPPKLGQIGRSKRVVIED [R2A]
CaMKIIα; [1]
  IC50: < 0.3 µM

## H-KRPPKLGQIGRSKRVAIED-OH [V16A]
CaMKIIα; [1]
  IC50: ~0.1 µM

## H-KRPPKLGAIGRSKRVVIED-OH [Q8A]
CaMKIIα; [1]
  IC50: ~0.1 µM

## KRPPKLGQIGRSKRAVIED [V15A]
CaMKIIα; [1]
  IC50: < 0.3 µM

## KRPPKLGQIARSKRVVIED [G10A]
CaMKIIα; [1]
  IC50: > 0.3 µM

## KRPPKAGQIGRSKRVVIED [L6A]
CaMKIIα; [1]
  IC50: > 0.3 µM

## Ac-KRAPKLGQIGRQKAVDIED-NH2 [CN19o]
CaMKIIα
  CaMKII activity remaining at 5 nM peptide: blocked CaMKII activity almost completely
  effect of rational mutation in CN19a2v / CN19o on CaMKII inhibition (Fig. 6): increased potency even further
  fold greater potency of CaMKII inhibition compared to CN19: > 250 fold
CaMKIIα; CaMKII reduced to 0.1 nM, 10 min reaction, IC50 dependent on CaMKII concentration (tight binding inhibitor), read-out: IC50 for CaMKII inhibition by CN19o (Fig. 7A)
  IC50: < 0.0004 µM
CaMKIIα; [3]
  IC50: 0.0004 µM
PKC
  effect on PKC activity at 5 µM: did not significantly affect
AMPK-α2β1γ1
  effect on AMPK activity at 5 µM: did not significantly affect
CaMKIV
  effect on CaMKIV activity at 5 µM: did not significantly affect
PKA
  effect on PKA activity at 5 µM: did not significantly affect
DAPK1 1–363
  effect on DAPK1 activity at 5 µM: did not significantly affect
CaMKIα
  fold increase of selectivity for CaMKII vs CaMKI compared to CN19: > 250 fold
  IC50: 38 µM
  effect on CaMKI activity at 5 µM peptide: did not significantly affect
CaMKIα; ratio CaMKI IC50 / CaMKII IC50
  CaMKII selectivity (Fig. S5 table): > 100,000 x
  selectivity for CaMKII vs CaMKI: ~100,000 fold

## Ac-KRPPKLGQIGRSKRVVIEDD-NH2 [CN20]
CaMKIIα; CaMKII 20 nM, 40 µM syntide 2
  effect of CN21 truncation on CaMKII inhibition (Fig. 1B): not different between each other
CaMKIIα; [2]
  IC50: ~0.1 µM

## Ac-KRPPKLGQIGRSKRVVIEDDR-NH2 [CN21, reference compound]
CaMKIIα
  IC50: ~0.1 µM
CaMKII
  IC50: ~1 µM
CaMKIα
  effect on CaMKI activity at 5 µM peptide: did not significantly inhibit

## KRPPKLGQIGASKRVVIED [R11A]
CaMKIIα
  fold reduction of potency of CaMKII inhibition compared to CN19 (Ala scan): more than 3 fold
CaMKIIα; [1]
  IC50: > 0.3 µM

## KRPPKLGQIGRSKRVVIEA [D19A]
CaMKIIα; [1]
  IC50: < 0.3 µM

## Ac-KRAPKLGQIGRVKAVVIED-NH2 [CN19a2v]
CaMKIIα
  CaMKII activity remaining at 5 nM peptide: ~75%
  fold greater potency of CaMKII inhibition compared to CN19: ~5 fold
CaMKIIα; 20 nM peptide, syntide 2
  potency of CN19 combination mutants (Fig. 4): without loss of its potency; also recorded: significantly stronger compared to CN19a3 with additional S12V mutation (CN19a3v)
CaMKIIα; compared with CN19a2
  effect of further mutation in CN19a2 on CaMKII inhibition (Figs. S3B, S4B): retained potency of CaMKII inhibition
CaMKIIα; [3]
  IC50: 0.02 µM
CaMKIα
  fold greater potency of CaMKI inhibition compared to CN19: ~2 fold
  fold increase of selectivity for CaMKII vs CaMKI compared to CN19: ~2.5 fold
  IC50: 18 µM
  effect on CaMKI activity at 5 µM peptide: did not inhibit
CaMKIα; 20 µM peptide, remaining activity (Fig. 5B)
  CaMKI activity at 20 µM peptide: ~60%
CaMKIα; ratio CaMKI IC50 / CaMKII IC50
  selectivity for CaMKII vs CaMKI: ~900 fold

## KRPPKLGQIGRSKRVVIAD [E18A]
CaMKIIα; [1]
  IC50: < 0.3 µM

## KRPPKLGQIGRAKRVVIED [S12A]
CaMKIIα
  fold reduction of potency of CaMKII inhibition compared to CN19 (Ala scan): more than 3 fold
CaMKIIα; [1]
  IC50: > 0.3 µM

## KRPAKLGQIGRSKRVVIED [P4A]
CaMKIIα; [1]
  IC50: > 0.3 µM

## Ac-KRAPKLGQIGRQKAVVIED-NH2 [CN19a2v V12Q]
CaMKIIα
  effect of rational mutation in CN19a2v / CN19o on CaMKII inhibition (Fig. 6): significantly increased potency
CaMKIIα; [2]
  IC50: ~0.001 µM

## KRPPKLGQIGRSARVVIED [K13A]
CaMKIIα; [1]
  IC50: < 0.1 µM
CaMKIIα; syntide 2
  effect of individual mutation of CN19 on potency of CaMKII inhibition: significantly increased potency

## KRPPKLAQIGRSKRVVIED [G7A]
CaMKIIα; [1]
  IC50: < 0.3 µM
